From article PMC2895947 (Neuropsychopharmacology : official publication of the …, 2010)

Legend:
FAAH−/− and FAAH+/+ mice [1] = experiment: Rimonabant-precipitated withdrawal; assay type: in vivo; conditions: after subchronic 50 mg/kg twice daily 5.5 days; rimonabant 10 mg/kg i.p.
CB1 receptor [2] = biological target: T1, CB1 receptor (Mus musculus, UniProt P47746); assay type: biochemical, mice
CB1 receptor [3] = biological target: T1, CB1 receptor; experiment: [3H]WIN55,212-2 autoradiography in brain sections after subchronic treatment; assay type: binding; conditions: FAAH−/− mice treated subchronically; 1 nM radioligand; mean ± SEM
CB1 receptor [4] = biological target: T1, CB1 receptor; experiment: Agonist-stimulated [35S]GTPγS binding in spinal cord membranes; assay type: biochemical, mice
FAAH−/− and FAAH+/+ mice [5] = conditions: FAAH−/− mice ref Cravatt et al., 2001; cited from earlier work
[6] = THC blood and brain levels, single bolus vs cumulative dosing; assay type: in vivo; conditions: C57Bl/6J mice, mean ± SEM
FAAH−/− and FAAH+/+ mice [7] = experiment: Tail withdrawal; assay type: in vivo
FAAH−/− and FAAH+/+ mice [8] = experiment: Bar test for catalepsy, cumulative dose-response; assay type: in vivo
FAAH−/− and FAAH+/+ mice [9] = experiment: Hypothermia; assay type: in vivo
[10] = FAAH−/− mice treated subchronically, WIN55,212-2 10 μM, mean ± SEM
[11] = FAAH+/+ mice, naive, cumulative dosing
[12] = FAAH−/− mice, naive, cumulative dosing
[13] = Table 3, FAAH−/− mice, subchronic AEA
[14] = Table 3, FAAH−/− mice, subchronic THC
[15] = Table 3, FAAH−/− mice, subchronic vehicle

T1 sequence (P47746 whole entry): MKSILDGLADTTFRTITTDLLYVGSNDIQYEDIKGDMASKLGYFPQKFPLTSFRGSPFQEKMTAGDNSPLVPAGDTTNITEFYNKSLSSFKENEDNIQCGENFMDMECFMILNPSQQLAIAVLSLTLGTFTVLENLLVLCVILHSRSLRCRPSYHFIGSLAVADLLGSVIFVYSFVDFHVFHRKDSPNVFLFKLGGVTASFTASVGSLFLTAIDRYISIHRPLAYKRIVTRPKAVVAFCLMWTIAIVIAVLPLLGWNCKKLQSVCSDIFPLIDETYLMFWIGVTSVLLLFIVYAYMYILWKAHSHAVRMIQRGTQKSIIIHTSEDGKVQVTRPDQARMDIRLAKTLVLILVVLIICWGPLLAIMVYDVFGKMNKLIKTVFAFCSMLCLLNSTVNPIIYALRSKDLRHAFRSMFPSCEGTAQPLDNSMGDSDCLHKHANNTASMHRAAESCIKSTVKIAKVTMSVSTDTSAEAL

CCCCC/C=C\C/C=C\C/C=C\C/C=C\CCCC(=O)NCCO [AEA, N-arachidonoyl ethanolamine]
Rimonabant precipitated head twitches / headshakes (FAAH−/− and FAAH+/+ mice [1]): no changes | WIN55,212-2-stimulated [35S]GTPγS binding vs vehicle control (study 1, Figure 5) (CB1 receptor [2]; FAAH+/+ and FAAH−/− mice, caudate putamen, hippocampus, cerebellum): not different from vehicle control | Net WIN55,212-2-stimulated [35S]GTPγS binding, Caudate-Putamen (CB1 receptor [2]; [10]): 152 ± 28 nCi/g | Net WIN55,212-2-stimulated [35S]GTPγS binding, Cerebellum (CB1 receptor [2]; [10]): 178 ± 23 nCi/g | Net WIN55,212-2-stimulated [35S]GTPγS binding, Globus Pallidus (CB1 receptor [2]; [10]): 639 ± 60 nCi/g | Net WIN55,212-2-stimulated [35S]GTPγS binding, Hippocampus (CB1 receptor [2]; [10]): 132 ± 24 nCi/g | Net WIN55,212-2-stimulated [35S]GTPγS binding, PAG (CB1 receptor [2]; [10]): 79 ± 19 nCi/g | Net WIN55,212-2-stimulated [35S]GTPγS binding, Substantia Nigra (CB1 receptor [2]; [10]): 592 ± 49 nCi/g | Specific [3H]WIN55,212-2 binding, Caudate-Putamen (CB1 receptor [3]): 0.95 ± 0.09 pCi/g | Specific [3H]WIN55,212-2 binding, Cerebellum (CB1 receptor [3]): 1.69 ± 0.18 pCi/g | Specific [3H]WIN55,212-2 binding, Globus Pallidus (CB1 receptor [3]): 2.31 ± 0.18 pCi/g | Specific [3H]WIN55,212-2 binding, Hippocampus (CB1 receptor [3]): 0.88 ± 0.06 pCi/g | Specific [3H]WIN55,212-2 binding, PAG (CB1 receptor [3]): 0.57 ± 0.06 pCi/g | Specific [3H]WIN55,212-2 binding, Substantia Nigra (CB1 receptor [3]): 3.11 ± 0.29 pCi/g | Emax of agonist-stimulated [35S]GTPγS binding (CB1 receptor [4]; spinal cord membranes from AEA-treated FAAH−/− mice): 35 ± 3.3 % Stim | Emax as percent of that obtained in vehicle-treated mice (CB1 receptor [4]; spinal cord membranes from AEA-treated mice): 104% | Emax of agonist-stimulated [35S]GTPγS binding (CB1 receptor [4]; spinal cord membranes from THC-treated FAAH−/− mice): 25 ± 2.3 % Stim | Emax as percent of that obtained in vehicle-treated mice (CB1 receptor [4]; spinal cord membranes from THC-treated mice): 75% | Emax of agonist-stimulated [35S]GTPγS binding (CB1 receptor [4]; spinal cord membranes from vehicle-treated FAAH−/− mice): 34 ± 1.6 % Stim | Persistence of antinociception, catalepsy, locomotor inhibition and hypothermia (FAAH−/− and FAAH+/+ mice [5]): 6 to 8 h

CCCCCc1cc(O)c2c(c1)OC(C)(C)[C@@H]1CCC(C)=C[C@@H]21 [THC, Δ^9-tetrahydrocannabinol]
Brain THC level, single bolus ([6]; THC 3 mg/kg): 77 ± 5 ng/mL | Brain THC level, single bolus ([6]; THC 10 mg/kg): 212 ± 19 ng/mL | Brain THC level, cumulative dosing ([6]; THC 30 mg/kg cumulative): 641 ± 134 ng/mL | Brain THC level, single bolus ([6]; THC 30 mg/kg): 520 ± 79 ng/mL | Brain THC level, cumulative dosing ([6]; THC 56 mg/kg cumulative): 1294 ± 178 ng/mL | Brain THC level, single bolus ([6]; THC 56 mg/kg): 1072 ± 156 ng/mL | Antinociception ED50 (95% CI) (FAAH−/− and FAAH+/+ mice [7]; [11]): 19 (14-26) mg/kg | Antinociception ED50 (95% CI) (FAAH−/− and FAAH+/+ mice [7]; [12]): 22 (17-30) mg/kg | Antinociception maximum effect ± SEM (FAAH−/− and FAAH+/+ mice [7]; FAAH−/− mice, subchronic THC 50 mg/kg twice daily 5.5 days, @ 300 mg/kg): 25 + 4%MPE @ 300 mg/kg | Antinociception ED50 (95% CI) (FAAH−/− and FAAH+/+ mice [7]; [13]): 55 (44-69) mg/kg | Antinociception ED50 (95% CI) (FAAH−/− and FAAH+/+ mice [7]; [14]): 76 (58-99) mg/kg | Antinociception ED50 (95% CI) (FAAH−/− and FAAH+/+ mice [7]; [15]): 20 (16-24) mg/kg | Catalepsy ED50 (95% CI) (FAAH−/− and FAAH+/+ mice [8]; [11]): 18 (13-25) mg/kg | Catalepsy maximum effect (FAAH−/− and FAAH+/+ mice [8]; FAAH+/+ mice, subchronic THC, @ 300 mg/kg): 62% @ 300 mg/kg | Catalepsy ED50 (95% CI) (FAAH−/− and FAAH+/+ mice [8]; [12]): 21 (15-28) mg/kg | Catalepsy maximum effect (FAAH−/− and FAAH+/+ mice [8]; FAAH−/− mice, subchronic AEA, @ 300 mg/kg): 25% @ 300 mg/kg | Catalepsy maximum effect (FAAH−/− and FAAH+/+ mice [8]; FAAH−/− mice, subchronic THC, @ 300 mg/kg): 67% @ 300 mg/kg | Catalepsy ED50 (95% CI) (FAAH−/− and FAAH+/+ mice [8]; [13]): 62 (56-69) mg/kg | Catalepsy maximum effect (FAAH−/− and FAAH+/+ mice [8]; Table 3, FAAH−/− mice, subchronic THC, @ 150 mg/kg): 50% @ 150 mg/kg | Catalepsy ED50 (95% CI) (FAAH−/− and FAAH+/+ mice [8]; [15]): 16 (13-19) mg/kg | Hypothermia ED50 (95% CI) (FAAH−/− and FAAH+/+ mice [9]; [11]): 18 (15-22) mg/kg | Hypothermia ED50 (95% CI) (FAAH−/− and FAAH+/+ mice [9]; FAAH+/+ mice, subchronic THC): 109 (62- 190) mg/kg | Hypothermia ED50 (95% CI) (FAAH−/− and FAAH+/+ mice [9]; [12]): 22 (16-32) mg/kg | Hypothermia ED50 (95% CI) (FAAH−/− and FAAH+/+ mice [9]; FAAH−/− mice, subchronic AEA): 133 (106- 166) mg/kg | Hypothermia ED50 (95% CI) (FAAH−/− and FAAH+/+ mice [9]; FAAH−/− mice, subchronic THC): 224 (190- 266) mg/kg | Hypothermia ED50 (95% CI) (FAAH−/− and FAAH+/+ mice [9]; [13]): 50 (40-55) mg/kg | Hypothermia ED50 (95% CI) (FAAH−/− and FAAH+/+ mice [9]; [14]): 32 (27-38) mg/kg | Hypothermia ED50 (95% CI) (FAAH−/− and FAAH+/+ mice [9]; [15]): 17 (15-20) mg/kg | Rimonabant precipitated head twitches / headshakes (FAAH−/− and FAAH+/+ mice [1]): significant increases
